Peptide text beside a SMILES is read from it.
How the values were obtained:
PDPN in A875 cells = assay: Immunofluorescence binding/co-localization with PDPN, A875; assay type: cell-based; conditions: 5 μM, 10 h, 37 ℃
Method: Immunofluorescence analysis was used for antigen localization and quantification. For PDPN immunofluorescence staining, melanoma cells (A375, A875) were seeded in coverslips, cultured for 24 h, and fixed using 4% paraformaldehyde for 15 min at room temperature (RT). The cells were then permeabilized with 0.2% Triton X-100 in PBS for 10 min. Cells were blocked using 1% bovine serum albumin (BSA) in PBS for 30 min at RT, and incubated with the primary antibody overnight at 4 ℃. Afterwards, cells were washed three times with PBS containing 0.01% Triton X-100 for 5 min, and incubated with Alexa Fluor 568–conjugated secondary antibodies at RT for 1 h. Lastly, the nuclei were dyed with 4’,6-diamidino-2-phenylindole (DAPI) for 5 min at RT, and the slides were imaged using a NIKON laser scanning confocal microscope. To further verify the specificity binding ability of CY12-RP2 with PDPN, immunofluorescence was detected for analysis in melanoma cells. Briefly, A375 or A875 cells were incubated with CY12-RP2 at a concentration of 5 μM for 10 h at 37 ℃, and then washed with DMEM to remove the unbound peptide. The anti-PDPN primary antibody was then incubated for 4 h at RT. Further experimental procedures were performed as described above. […]

A875 cells = assay: Wound healing (migration), A875; assay type: cell-based; conditions: wound healing, 0, 5, 25 μM, 24 h or 48 h
Method: A375 GFP, A875 GFP, A375 PDPN^−/−, and A875 PDPN^+/+ cells were all seeded in 12-well plates at a density of 5 × 10^5 cells/well. When the cells reached 100% confluence the next day, the straight wound was scraped in each cultured well with a 20 µL pipette tip. Then the cells were washed repeatedly with complete DMEM to remove the cellular debris, and the medium was changed to a low serum medium containing 0.05% FBS. The scratch-treated cells were subsequently cultured for an additional indicated time and imaged at 0 h, 12 h, 24 h and 48 h. Quantification of wound closure was accomplished by measuring the distance between the phase contrast images’ anterior edges of the contralateral surfaces using ImageJ software. As for peptide (CY12-RP2) function experiments, images of phase contrast for A375 GFP and A875 GFP cells were captured at 0 h before peptide administration. The cells were then treated with CY12-RP2 (0 μM, 5 μM, 25 μM) for 24 h or 48 h, and then images were acquired again. Handling of the experimental results were carried out as previously described.

[1] = tested on: B16F10-Luc melanoma allograft; assay type: in vivo, BALB/c mice; murine melanoma cell line; conditions: 100 mg/kg, tail vein, every other day for 15 days
Method: Tumorigenesis assays were conducted in vivo using BALB/c nude mice and BALB/c mice from Guangdong Medical Laboratory Animal Center. The animal study was reviewed and approved by the Administrative Committee on Animal Research of Shenzhen International Graduate School, Tsinghua University (Ethical Development No. 16, 10 November 2021). Samples with 5 × 10^5 A375 or B16F10-Luc melanoma cells were diluted in 100 μL PBS and injected subcutaneously into 6- to 8-week-old female BALB/c nude mice or BALB/c mice. 5 days later, the mice were treated with CY12-RP2 by tail vein administration at various doses (25 mg/kg and 100 mg/kg) every two days. The tumor volume and body weight were measured every 2 days, with the calculation of the tumor volume under the assumption of an ellipsoidal tumor as: tumor volume = length × width^2/2. Tumors from BALB/c nude mice were collected and photographed on day 21, while tumors from the allograft mouse model were measured using bioluminescence imaging. The blood collected from the eyes of BALB/c nude mice were stored at 4 °C for 24 h and then centrifuged for 15 min under the indicated conditions (4 °C, 3000 rpm). The supernatant was collected and assayed for drug toxicity using kits, including AST, ALT, TG, and γ-GT. […]

[2] = tested on: immune cells in spleen and lung; assay: Flow cytometry of immune cells, spleen and lung, lung metastasis model; assay type: in vivo, BALB/c mice; conditions: lungs and spleens
Method: In this study, cell apoptosis was analyzed by flow cytometry using a PI/FITC-Annexin V Apoptosis Detection Kit (4A Biotech, Beijing, China). Briefly, melanoma cells were collected and washed with pre-chilled PBS, then resuspended with Annexin V staining buffer. Afterward, fluorescein isothiocyanate (FITC)-Annexin V and PI were stained for 5 min at RT, and then immediately detected using a Beckman flow cytometer. To investigate immune cell infiltration of the lung and spleen in the pulmonary metastasis mouse model, the surface and nuclear antigen staining were performed following the experimental procedure. Fluorescence-labeled mAb against CD3, CD25, CD49b, GranzymeB, CD11b, CD86, and CD206 were purchased from BioLegend (BioLegend, San Diego, CA), and CD4, CD8, and Foxp3 from Tonbo. Surface markers, including CD3, CD4, CD8, CD25, CD49b, GranzymeB, CD11b, CD86 and CD206, were firstly stained, then fixed, permeabilized, and stained for the intranuclear marker Foxp3, respectively. Finally, the samples were measured using flow cytometry.
For pulmonary metastasis assays, 6- to 8-week-old female BALB/c mice were administered with 5 × 10^5 B16F10-Luc cells via tail vein to establish an experimental pulmonary metastasis model of melanoma. CY12-RP2 was administered to the mice intravenously at high and low doses (25 mg/kg and 100 mg/kg) every two days, and the mice were sacrificed after 15 days of treatment. Pulmonary metastases were evaluated using bioluminescence imaging on the 2nd, 5th, 10th, 15th and 20th day after B16F10-Luc cells injection. Subsequently, the BALB/c mice were sacrificed, and the organs including the heart, liver, spleen, lung, and kidney were collected and imaged for evaluation of micrometastases. The xenografts and organs were kept in a 4% paraformaldehyde solution for subsequent histological assays.

For `CC(C)C[C@H](NC(=O)[C@H](Cc1ccc(O)cc1)NC(=O)[C@@H](N)[C@@H](C)O)C(=O)N[C@@H](CS)C(=O)N[C@H](C(=O)N[C@@H](C)C(=O)N[C@@H](CS)C(=O)N[C@@H](CC(=O)O)C(=O)N[C@@H](Cc1ccc(O)cc1)C(=O)N[C@H](C(=O)N[C@@H](Cc1c[nH]cn1)C(=O)N[C@@H](Cc1c[nH]cn1)C(=O)O)[C@@H](C)O)[C@@H](C)O` [CY12-RP2] (H-TYLCTACDYTHH-OH; N-terminus and C-terminus assumed), the “fluorescence and co-localization with PDPN” value (PDPN in A875 cells) was “minimal fluorescence”, the migration (A875 cells) was “inhibited migration at the corresponding time both in A375 and A875 cells” and the tumor volume [1] was “noticeably decreased”. For the same compound, the “tumor growth (bioluminescence imaging)” value ([1]; vs control) was “significantly decreased tumor growth”, the “CD3 + CD4 + T cells ratio to total T cells” value [2] was “significantly increased” and the “CD3 + CD8 + T cells ratio to total T cells” value [2] was “significantly increased”. The “CD4 + CD25 + Foxp3 + Treg cells” value [2] was “significantly diminished”, the “CD11b + CD86 + M1-like macrophages proportion” value [2] was “significantly increased” and the “CD11b + CD206 + M2-like macrophages proportion” value [2] was “decreased”. For the same compound, the “CD49b + Granzyme B + NK cells proportion” value [2] was “significantly increased”.

— publication PMC10759609, “A novel PDPN antagonist peptide CY12-RP2 inhibits melanoma growth via Wnt/β-catenin and modulates the immune cells” (Journal of Experimental & Clinical Cancer Research : CR, 2024)
